# In PubChem BioAssay (NCI):
#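 Compound exposure: 48 hours, 5 concentrations, 96-well plates. GI50 is the concentration that inhibits growth by half. TGI: concentration producing complete growth inhibition.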
# Key:
# Assay in all cases: NCI anticancer screen, dose series, 48 h
# A498 renal = tested on: A498 renal
# HCC-2998 colon = tested on: HCC-2998 colon
# A549 NSCLC = tested on: A549 NSCLC
# NCI-H23 lung = tested on: NCI-H23 lung
# SW-620 colon = tested on: SW-620 colon
# ACHN renal = tested on: ACHN renal
# M14 melanoma = tested on: M14 melanoma
# SF-539 CNS = tested on: SF-539 CNS
# HL-60(TB) leukemia = tested on: HL-60(TB) leukemia
# HOP-92 NSCLC = tested on: HOP-92 NSCLC
Structure (SMILES),TGI (A498 renal) [µM],TGI (HCC-2998 colon) [µM],TGI (A549 NSCLC) [µM],TGI (NCI-H23 lung) [µM],TGI (SW-620 colon) [µM],TGI (ACHN renal) [µM],TGI (M14 melanoma) [µM],TGI (SF-539 CNS) [µM],TGI (HL-60(TB) leukemia) [µM],TGI (HOP-92 NSCLC) [µM],GI50 (HOP-92 NSCLC) [µM],GI50 (HCC-2998 colon) [µM],GI50 (NCI-H23 lung) [µM],GI50 (SW-620 colon) [µM],GI50 (ACHN renal) [µM],GI50 (M14 melanoma) [µM],GI50 (SF-539 CNS) [µM],GI50 (HL-60(TB) leukemia) [µM],GI50 (A549 NSCLC) [µM]
NC(=O)Cn1c(=O)[nH]c(=O)c2[nH]cnc21,> 100,> 100,> 100,> 100,> 100,> 100,> 100,> 100,> 100,–,–,–,–,–,–,–,–,–,–
CC1=C[C@H]2C[C@@]3(C)O[C@@H]([C@]4(C)CC[C@H]([C@@H](C)C(=O)O)OO4)CC3C(C)(C)[C@H]2CC1 (stereo not given in full),–,2.28,3.62,3.55,0.856,3.05,2.96,3.57,0.306,0.273,–,–,–,–,–,–,–,–,–
O=C1CCCc2c(O)ccc(O)c21,> 100,> 100,> 100,> 100,> 100,> 100,> 100,> 100,53.5,–,–,–,–,–,–,–,–,–,–
C[P+](C)(CC(F)(F)F)c1ccccc1,> 100,> 100,> 100,> 100,> 100,> 100,> 100,> 100,> 100,–,–,–,–,–,–,–,–,–,–
Cc1ccc(C)c2sc3cc(=O)ccc-3nc12,–,> 100,> 100,> 100,> 100,> 100,42.7,> 100,38.8,83.3,–,–,–,–,–,–,–,–,–
CC1=CC(=O)c2[nH]c3ccccc3c2C1=O,–,24,> 25,7.28,7.65,7.54,7.62,7.79,9.85,7.36,3.98,7.01,3.69,3.94,4.14,4.21,4.28,4.06,–
CN(C)/C(=N/C(=O)Nc1ccccc1)SCc1ccccc1,> 100,> 100,> 100,> 100,> 100,> 100,> 100,> 100,> 100,–,–,–,–,–,–,–,–,–,–
Nc1nc(Cl)cc(NCCCCCCCCCCNc2cc(Cl)nc(N)n2)n1,–,> 100,> 100,> 100,> 100,0.0447,> 100,> 100,34.6,> 100,–,–,–,–,–,–,–,–,–
O=C(O)c1oc2ccc([N+](=O)[O-])c3c2c1CCC3,–,> 100,> 100,> 100,> 100,> 100,> 100,> 100,> 100,> 100,–,–,–,–,–,–,–,–,–
C[Si](C)(C)[C@@]1([Se]c2ccccc2)CC[C@@H]1C(=O)c1ccccc1,> 100,> 100,> 100,> 100,> 100,> 100,> 100,> 100,–,–,–,–,–,–,–,–,–,–,–
C(=C1/CCCCC([n+]2ccccc2)=N1)/c1ccccc1,–,> 100,> 100,> 100,> 100,> 100,> 100,> 100,> 100,> 100,–,–,–,–,–,–,–,–,–
CC12CC(=O)NN=C1c1ccccc1C2 (stereo not given),> 100,> 100,> 100,> 100,> 100,> 100,> 100,> 100,> 100,–,–,–,–,–,–,–,–,–,–
COc1ccc(/C=C/CO)cc1OC,–,> 100,> 100,> 100,> 100,> 100,–,> 100,–,> 100,–,–,–,–,–,–,–,–,–
OCC(O)C(OC1OC(CO)C(O)C(O)C1O)c1nn(-c2ccc(F)cc2)c2nc3cc(Cl)c(Cl)cc3cc12 (stereo not given),> 100,> 100,–,> 100,–,> 100,> 100,> 100,–,–,–,–,–,–,–,–,–,–,–
CN(C)c1ccc(/C=N/Nc2ccc(-c3nc4ccccc4[nH]3)cc2)cc1,–,–,27.1,45.5,> 50,41.7,46.8,–,> 50,> 50,12.4,–,13.8,18.9,8.76,13.2,–,14.6,9.33
CCn1c(-c2cc3ccccc3cc2OC(=O)c2ccccc2)n[nH]c1=S,–,–,> 50,> 50,> 50,> 50,> 50,> 50,> 50,> 50,> 50,–,22.5,> 50,> 50,> 50,> 50,32.7,> 50
C[C@@H]1CC[C@H]2C(CN3CCN(CC4=C(C(F)(F)F)O[C@@H]5O[C@@]6(C)CC[C@H]7[C@H](C)CC[C@@H]4[C@@]57OO6)CC3)=C(C(F)(F)F)O[C@@H]3O[C@@]4(C)CC[C@@H]1[C@]32OO4,–,> 100,> 100,> 100,> 100,> 27.2,> 100,> 100,–,> 100,5.15,10.5,2.07,1.12,2.61,5.74,0.567,0.382,3.31
